Data as given in ChEMBL document CHEMBL1201862, “PubChem BioAssay data set” (2004).
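Following 48 hours of exposure in 96-well plates, responses at five concentrations were used to interpolate endpoints linearly. GI50 marks 50% less growth.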 Active and inactive are the calls of the source. Rule as the data show it: active = GI50 up to about 1.1 µM and inactive = higher.

Legend:
Test in all cases: DTP human tumour cell line panel, 48 h
HT-29 = tested on: HT-29
TK-10 = tested on: TK-10
LOX IMVI = tested on: LOX IMVI
UACC-257 = tested on: UACC-257
K562 = tested on: K562
DMS-273 = tested on: DMS-273
OVCAR-8 = tested on: OVCAR-8
CCRF-CEM = tested on: CCRF-CEM
ACHN = tested on: ACHN
SN12C = tested on: SN12C
SK-OV-3 = tested on: SK-OV-3
SR = tested on: SR
MOLT-4 = tested on: MOLT-4
HL-60 = tested on: HL-60
OVCAR-4 = tested on: OVCAR-4
786-0 = tested on: 786-0
SW-620 = tested on: SW-620
T47D = tested on: T47D

Row | Compound | GI50 (HT-29) | GI50 (TK-10) | GI50 (LOX IMVI) | GI50 (UACC-257) | GI50 (K562) | GI50 (DMS-273) | GI50 (OVCAR-8) | GI50 (CCRF-CEM) | GI50 (ACHN) | GI50 (SN12C) | GI50 (SK-OV-3) | GI50 (SR) | GI50 (MOLT-4) | GI50 (HL-60) | GI50 (OVCAR-4) | GI50 (786-0) | GI50 (SW-620) | GI50 (T47D)
1 | O=C1C=C(O)c2nc(O)ccc2C1=O | > 100 µM (inactive) | > 100 µM (inactive) | > 100 µM (inactive) | > 100 µM (inactive) | > 100 µM (inactive) | > 100 µM (inactive) | > 100 µM (inactive) | > 100 µM (inactive) | > 100 µM (inactive) | > 100 µM (inactive) | > 100 µM (inactive) | > 100 µM (inactive) | > 100 µM (inactive) | > 100 µM (inactive) | 26.2 µM (inactive) | > 100 µM (inactive) | > 100 µM (inactive) | 
2 | COC(=O)C1C(OS(=O)(=O)O)CCC2CN3CCc4c([nH]c5ccccc45)C3CC21 (stereo unspecified) | > 100 µM (inactive) | > 100 µM (inactive) | > 100 µM (inactive) | > 100 µM (inactive) | > 100 µM (inactive) |  | > 100 µM (inactive) | > 100 µM (inactive) | > 100 µM (inactive) | > 100 µM (inactive) | > 100 µM (inactive) | > 100 µM (inactive) | > 100 µM (inactive) | > 100 µM (inactive) | > 100 µM (inactive) | > 100 µM (inactive) | > 100 µM (inactive) | > 100 µM (inactive)
3 | COC(=O)CCC(=O)NC1=C(Nc2ccccc2)C(=O)c2ccccc2C1=O | 16.9 µM (inactive) | 22.5 µM (inactive) | 4.34 µM (inactive) | 2.84 µM (inactive) | 14.8 µM (inactive) |  | 11.4 µM (inactive) | 9.95 µM (inactive) | 14.9 µM (inactive) | 13.6 µM (inactive) | 12.9 µM (inactive) | 11.4 µM (inactive) | 12.1 µM (inactive) | 3.36 µM (inactive) | 10.5 µM (inactive) | 12.3 µM (inactive) | 11.4 µM (inactive) | 13.3 µM (inactive)
4 | O=c1c2nc(-c3ccccc3)oc2n(-c2ccccc2)c(=O)n1-c1ccccc1 | > 46.5 µM (inactive) | 15 µM (inactive) | 38.5 µM (inactive) | 36.3 µM (inactive) | > 46.5 µM (inactive) |  | 23.3 µM (inactive) | > 46.5 µM (inactive) | 25.9 µM (inactive) | 36.2 µM (inactive) | 21.5 µM (inactive) | > 31.6 µM (inactive) | > 46.5 µM (inactive) | > 100 µM (inactive) | 18.8 µM (inactive) | 17.5 µM (inactive) | > 46.5 µM (inactive) | 37.9 µM (inactive)
5 | c1ccc(P2c3ccccc3Nc3ccccc32)cc1 | 49 µM (inactive) | > 100 µM (inactive) | 45.8 µM (inactive) | 43.1 µM (inactive) | 44.1 µM (inactive) |  | > 100 µM (inactive) | 23.6 µM (inactive) | 86.5 µM (inactive) | 41.1 µM (inactive) | > 100 µM (inactive) | 23.2 µM (inactive) | 24.8 µM (inactive) | 29.1 µM (inactive) | 38.8 µM (inactive) | > 100 µM (inactive) | > 100 µM (inactive) | 55.2 µM (inactive)
6 | COc1cc(C(=O)O)c(-c2cc3c(cc2C=O)OCO3)c(OC)c1OC | > 10 µM (inactive) | > 10 µM (inactive) | > 10 µM (inactive) | > 10 µM (inactive) | > 10 µM (inactive) |  | > 10 µM (inactive) | > 10 µM (inactive) | > 10 µM (inactive) | > 10 µM (inactive) | > 10 µM (inactive) | > 10 µM (inactive) | > 10 µM (inactive) | > 10 µM (inactive) | > 10 µM (inactive) | > 10 µM (inactive) | > 10 µM (inactive) | > 10 µM (inactive)
7 | C1=N\CCNCC/N=C/c2ccccc2OCc2cccc(n2)COc2ccccc2/1 | 10.7 µM (inactive) | 20.7 µM (inactive) | 5.31 µM (inactive) | 29.2 µM (inactive) | 4.59 µM (inactive) |  | 9.44 µM (inactive) | 3.33 µM (inactive) | 31.2 µM (inactive) | 13.2 µM (inactive) | 43.3 µM (inactive) | 4.06 µM (inactive) | 6.43 µM (inactive) | 2.56 µM (inactive) | 13.7 µM (inactive) | 6.7 µM (inactive) | 7.05 µM (inactive) | 17.2 µM (inactive)
8 | [Se]=P(c1ccccc1)(c1ccccc1)c1ccc(C(c2ccccc2)=P(c2ccccc2)(c2ccccc2)c2ccccc2)cc1 | 0.406 µM (active) | 1.41 µM (inactive) | 0.807 µM (active) | 0.817 µM (active) | 0.182 µM (active) |  | 0.764 µM (active) | 0.495 µM (active) | 2.44 µM (inactive) | 1.23 µM (inactive) | 2.05 µM (inactive) | 0.415 µM (active) | 1.32 µM (inactive) | 0.0881 µM (active) | 0.443 µM (active) | 1.2 µM (inactive) | 1.19 µM (inactive) | 0.537 µM (active)
